This passage reports pest or weed control and plant injury results from patent US12077503B2, “Substituted cyclic amides and their use as herbicides” (FMC CORPORATION, priority 2015, dated 2024).

Common to all, as to format: in vivo
The test system of assay [1] is ryegrass, Italian (Italian ryegrass, Lolium multiflorum). The experiment in a line: Test A postemergence. Conditions: Lolium multiflorum, post-emergence, 240 h, 125 g ai/ha, postemergence, visual injury rating after approximately 10 d; read-out: Ryegrass, Italian plant response rating (0 to 100 scale, 0 no effect, 100 complete control). The procedure, abridged: (§1)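 Treatment is preemergence as a directed soil spray after planting, or postemergence at the one- to two-leaf stage, with test chemical in a non-phytotoxic solvent mixture plus surfactant. Plants stay in the greenhouse about 10 d before visual injury scoring on a 0 to 100 scale versus untreated controls.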

The subject of a further assay is corn (Zea mays). Briefly: Test A postemergence. Conditions: Zea mays, post-emergence, 240 h, 125 g ai/ha, postemergence, visual injury rating after approximately 10 d; read-out: Corn plant response rating (0 to 100 scale, 0 no effect, 100 complete control). In outline: as §1
Assay [2] concerns pigweed (Amaranthus retroflexus). The experiment in a line: Test A postemergence. Conditions: Amaranthus retroflexus, post-emergence, 240 h, 125 g ai/ha, postemergence, visual injury rating after approximately 10 d; read-out: Pigweed plant response rating (0 to 100 scale, 0 no effect, 100 complete control). The procedure, abridged:
as §1

For assay [3], the system named is Galium (catchweed bedstraw, Galium aparine). Briefly: Test A postemergence. The following applies: Galium, post-emergence, 240 h, 125 g ai/ha, postemergence, visual injury rating after approximately 10 d; read-out: Galium plant response rating (0 to 100 scale, 0 no effect, 100 complete control). In outline: as §1
Assay [4] relates to giant foxtail (Setaria faberii). Briefly: Test A postemergence. The following applies: Setaria faberi, post-emergence, 240 h, 125 g ai/ha, postemergence, visual injury rating after approximately 10 d; read-out: Foxtail, Giant plant response rating (0 to 100 scale, 0 no effect, 100 complete control). In outline:
as §1

Assay [5] concerns barnyardgrass (Echinochloa crus-galli). The experiment in a line: Test A postemergence. Conditions: Echinochloa crus-galli, post-emergence, 240 h, 125 g ai/ha, postemergence, visual injury rating after approximately 10 d; read-out: Barnyardgrass plant response rating (0 to 100 scale, 0 no effect, 100 complete control). In outline: as §1
In assay [6] the test system is wheat (Triticum aestivum). Briefly: Test A postemergence. The following applies: Triticum aestivum, post-emergence, 240 h, 125 g ai/ha, postemergence, visual injury rating after approximately 10 d; read-out: Wheat plant response rating (0 to 100 scale, 0 no effect, 100 complete control). The procedure, abridged:
as §1

Assay [7] has as its system ragweed (common ragweed, Ambrosia elatior). The experiment in a line: Test A postemergence. The following applies: Ambrosia artemisiifolia, post-emergence, 240 h, 125 g ai/ha, postemergence, visual injury rating after approximately 10 d; read-out: Ragweed plant response rating (0 to 100 scale, 0 no effect, 100 complete control). In outline:
as §1

The test system of assay [8] is ryegrass, Italian (Italian ryegrass, Lolium multiflorum). The experiment in a line: Test A preemergence. Conditions: Lolium multiflorum, pre-emergence, 240 h. In outline:
as §1

The subject of assay [9] is pigweed (Amaranthus retroflexus). The experiment in a line: Test A preemergence. Conditions: Amaranthus retroflexus, pre-emergence, 240 h.
The subject of a further assay is Kochia (Kochia scoparia). The experiment in a line: Test A preemergence. The following applies: Bassia scoparia, pre-emergence, 240 h. The procedure, abridged: as §1
The test system of assay [10] is giant foxtail (Setaria faberii). The experiment in a line: Test A preemergence. The following applies: Setaria faberi, pre-emergence, 240 h. In outline: as §1
The subject of assay [11] is barnyardgrass (Echinochloa crus-galli). Briefly: Test A preemergence. Conditions: Echinochloa crus-galli, pre-emergence, 240 h. In outline: as §1
In assay [12] the test system is ragweed (common ragweed, Ambrosia elatior). Briefly: Test A preemergence. Conditions: Ambrosia artemisiifolia, pre-emergence, 240 h. The procedure, abridged:
as §1

As for `CS(=O)(=O)c1ccccc1NC(=O)[C@H]1C(=O)NC[C@@H]1c1cc(F)c(C(F)(F)F)c(F)c1` [Compound 839], the pest or weed control at 125 g/ha worked out at 50% in [1]; 80% in assay [2]; 80% in assay [3]; 60% in assay [4]; 60% in [5]; 60% in assay [7]. Also, the pest or weed control at 125 g/ha stood at 0% in assay [8] (125 g ai/ha, preemergence, 0 to 100 scale where 0 is no effect and 100 is complete control, read-out: Ryegrass, Italian plant response rating); 90% in assay [9] (125 g ai/ha, preemergence, 0 to 100 scale where 0 is no effect and 100 is complete control, read-out: Pigweed plant response rating); 90% in the assay with Kochia (Kochia scoparia) (125 g ai/ha, preemergence, 0 to 100 scale where 0 is no effect and 100 is complete control, read-out: Kochia plant response rating); 90% in assay [10] (125 g ai/ha, preemergence, 0 to 100 scale where 0 is no effect and 100 is complete control, read-out: Foxtail, Giant plant response rating); 80% in [11] (125 g ai/ha, preemergence, 0 to 100 scale where 0 is no effect and 100 is complete control, read-out: Barnyardgrass plant response rating); 80% in assay [12] (125 g ai/ha, preemergence, 0 to 100 scale where 0 is no effect and 100 is complete control, read-out: Ragweed plant response rating). The plant injury at 125 g/ha with corn (Zea mays) turned out to be 30%; in [6], 50%. The pest or weed control at 500 g/ha worked out at 40% in assay [8] (500 g ai/ha, Preemergence, visual injury vs untreated controls after approximately 10 d, read-out: Ryegrass, Italian plant response rating (0 to 100 scale where 0 is no effect and 100 is complete control)); 90% in assay [9] (500 g ai/ha, Preemergence, visual injury vs untreated controls after approximately 10 d, read-out: Pigweed plant response rating (0 to 100 scale where 0 is no effect and 100 is complete control)); 90% in the assay on Kochia (Kochia scoparia) (500 g ai/ha, Preemergence, visual injury vs untreated controls after approximately 10 d, read-out: Kochia plant response rating (0 to 100 scale where 0 is no effect and 100 is complete control)); 90% in [10] (500 g ai/ha, Preemergence, visual injury vs untreated controls after approximately 10 d, read-out: Foxtail, Giant plant response rating (0 to 100 scale where 0 is no effect and 100 is complete control)); 90% in assay [11] (500 g ai/ha, Preemergence, visual injury vs untreated controls after approximately 10 d, read-out: Barnyardgrass plant response rating (0 to 100 scale where 0 is no effect and 100 is complete control)); 90% in assay [12] (500 g ai/ha, Preemergence, visual injury vs untreated controls after approximately 10 d, read-out: Ragweed plant response rating (0 to 100 scale where 0 is no effect and 100 is complete control)).
